Reference: patent publication US9186093B2, “Compositions and methods for screening cardioactive drugs” (THE REGENTS OF THE UNIVERSITY OF CALIFORNIA, priority 2008, dated 2015)

How the values were obtained:
fly heart = assay: Drug application to the fly heart, induction of arrhythmias; format: in vivo, Drosophila; details: HERG and KCNQ channels present in fly heart
Excerpt: According to another embodiment of the invention, methods are provided for testing a compound for cardioactivity comprising: (a) providing a composition comprising an excised, denervated Drosophila heart that retains myogenic activity, and a physiologically acceptable hemolymph fluid in contact with said Drosophila heart; (b) contacting the composition with the compound; and (c) assessing the effect of the compound on the myogenic activity of the semi-intact Drosophila heart. In one such embodiment the method comprises assessing the effect of the compound on myogenic activity of the semi-intact Drosophila heart by producing images of the semi-intact Drosophila heart and analyzing the images. In another such embodiment, the method comprises determining a member of the group consisting of heart period, heart rate, diastolic interval, systolic interval, standard deviation of heart period, standard deviation of heart rate, standard deviation of diastolic interval, standard deviation of systolic interval, percent fractional shortening of heart contraction, arrhythmia index, velocity of heart muscle contraction, and directionality of heart muscle contraction.
These are thought to be due to drug effects on both HERG and KCNQ channels. […] Thus, this system can be used to screen for possible drug side effects.

patients = details: some patients; thought to be due to effects on HERG and KCNQ channels; cited from earlier work

| Structure (SMILES) | induction of arrhythmias in the fly (fly heart) | induction of arrhythmias in patients (patients) |
| --- | --- | --- |
| CCCCCCCN(CC)CCCC(O)c1ccc(NS(C)(=O)=O)cc1 (stereo not shown) [ibutilide] | induce arrhythmias in the fly | induce arrhythmias in some patients |
| CCCCCCC[N+](CC)(CC)CCCCc1ccc(Cl)cc1 [clofilium] | induce arrhythmias in the fly | induce arrhythmias in some patients |
